Measured values taken from US7452997B2 (priority 2004, dated 2008).
Like-named read-outs stand apart in the source and are kept apart here.

Key:
[1] = target: T1, human CB1 receptor (Homo sapiens, UniProt P21554); experiment: biochemical; assay type: binding
T1 construct: expressed in transfected cells; host or cells: SK-N-MC cells, stably transfected with pcDNA3 CB-1 (human); semi-purified membrane pellet
Method in brief: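 Membranes from SK-N-MC cells stably expressing human CB1, incubated 90 minutes at 30° C in Tris-HCl buffer with MgCl2, EDTA and fatty acid free BSA, pH 7.5. Bound counts collected by filtration and scintillation counting; IC50 from linear regression over varying compound concentrations.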

[2] = target: T2, human CB2 receptor (Homo sapiens, UniProt P34972); experiment: Binding assay, cannabinoid CB2 receptor ([3H]-CP-55,940 displacement); details: SK-N-MC cell membranes, radioligand CP-55,940 0.2 nM
Method in brief: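 Membranes from SK-N-MC cells stably expressing human CB2, incubated with test compound and 0.2 nM [3H]-CP-55,940 for 90 min at 30 °C in Tris buffer pH 7.5 with fatty-acid-free BSA. Nonspecific binding defined with 10 uM WIN 55,212; filtration and scintillation counting, IC50 by linear regression.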

[3] = target: T1, human CB1 receptor; experiment: Functional cell-based assay, CB1 receptor mediated change in CRE β-gal expression (agonist / inverse agonist)
Text: (§1) Functional Cell-Based Assay for CB1 or CB2 Agonist and Inverse Agonist Effects on Intra-Cellular Adenylate Cyclase Activity
(§2) The CB1 and CB2 receptors are G-protein coupled receptors (GPCR) which influence cell function via the Gi-protein. These receptors modulate the activity of intracellular adenylate cyclase which in turn produces the intracellular signal messenger cyclic-AMP (cAMP).
(§3) At baseline, or during non-ligand bound conditions, these receptors are constitutively active and tonically suppress adenylate cyclase activity. The binding of an agonists causes further receptor activation and produces additional suppression of adenylate cyclase activity. The binding of an inverse agonist inhibits the constitutive activity of the receptors and results in an increase in adenylate cyclase activity.
(§4) By monitoring intracellular adenylate cyclase activity, the ability of compounds to act as agonists or inverse agonists can be determined.
(§5) Test compounds were evaluated in SK-N-MC cells which, using standard transfection procedures, were stably transfected with human cDNA for pcDNA3-CRE β-gal and pcDNA3 CB1 receptor (human) or pcDNA3 CB2 receptor (human). By expressing CRE β-gal, the cells produced β-galactosidase in response to CRE promoter activation by cAMP. Cells expressing CRE β-gal and either the human CB1 or CB2 receptor will produce less β-galactosidase when treated with a CB1/CB2 agonist and will produce more β-galactosidase when treated with a CB1/CB2 inverse agonist.
(§6) The cells were grown in 96-well plates under standard cell culture conditions at 37° C. in a 5% CO2 atmosphere. After 3 days, the media was removed and a test compound in media (wherein the media was supplemented with 2 mM L-glutamine, […] sodium pyruvate, 0.1% low fatty acid FBS (fetal bovine serum) and antibiotics) was added to the cell. The plates were incubated for 30 minutes at 37° C. and the plate cells were then treated with forskolin over a 4-6 hour period, then washed and lysed. The β-galactosidase activity was quantitated using commercially available kit reagents (Promega Corp. Madison, Wis.) and a VMAX Plate Reader (Molecular Devices, Inc).
(§7) The change in β-galactosidase activity was determined by setting a vehicle treated cell's activity value at 100% and expressing the β-galactosidase activity measured in a corresponding compound treated cell as a percent of the vehicle treated cell activity.
(§8) The EC50 values for compounds tested were calculated by linear regression and were obtained from studies in which varying compound concentrations were used.

[4] = target: T2, human CB2 receptor; experiment: Functional cell-based assay, CB2 receptor mediated change in CRE β-gal expression (agonist / inverse agonist); details: SK-N-MC cells, forskolin, inverse agonist, read-out: CB2 Receptor Functional Inverse Agonist EC50
Text: as §1, §2, §3, §4, §5, §6
For cells expressing CRE β-gal and the CB2 receptor, CB2 agonists reduced β-galactosidase activity in a dose-dependent manner and CB2 inverse agonists increased β-galactosidase activity in a dose-dependent manner.
as §7, §8

[5] = Cannabinoid CB2 Receptor Binding IC50, human CB2 receptor
[6] = SK-N-MC cells, CRE β-gal, human CB1 receptor, forskolin, inverse agonist, read-out: CB1 Receptor Functional Inverse Agonist EC50

T1 sequence (P21554 whole entry): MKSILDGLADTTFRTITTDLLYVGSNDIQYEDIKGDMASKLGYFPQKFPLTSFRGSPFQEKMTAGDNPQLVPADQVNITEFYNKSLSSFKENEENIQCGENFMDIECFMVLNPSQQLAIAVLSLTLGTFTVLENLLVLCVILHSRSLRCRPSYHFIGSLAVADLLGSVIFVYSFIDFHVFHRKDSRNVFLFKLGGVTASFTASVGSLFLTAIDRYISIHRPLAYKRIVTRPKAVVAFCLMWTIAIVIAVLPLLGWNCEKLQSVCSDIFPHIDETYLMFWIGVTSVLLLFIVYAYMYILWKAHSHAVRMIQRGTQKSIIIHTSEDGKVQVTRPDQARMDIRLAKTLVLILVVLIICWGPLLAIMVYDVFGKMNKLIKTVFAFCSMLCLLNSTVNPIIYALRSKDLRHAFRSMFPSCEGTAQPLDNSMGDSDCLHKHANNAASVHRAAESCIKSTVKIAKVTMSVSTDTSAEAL
T2 sequence (P34972 whole entry): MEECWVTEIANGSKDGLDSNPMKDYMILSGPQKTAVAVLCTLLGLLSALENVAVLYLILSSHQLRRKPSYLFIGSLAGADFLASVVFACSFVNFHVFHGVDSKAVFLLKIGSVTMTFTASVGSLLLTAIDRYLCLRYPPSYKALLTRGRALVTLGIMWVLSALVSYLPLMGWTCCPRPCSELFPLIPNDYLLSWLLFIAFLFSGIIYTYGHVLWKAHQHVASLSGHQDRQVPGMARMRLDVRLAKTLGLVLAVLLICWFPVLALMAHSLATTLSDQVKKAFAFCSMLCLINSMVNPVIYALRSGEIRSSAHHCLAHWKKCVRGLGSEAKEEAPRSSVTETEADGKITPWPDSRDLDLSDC

| SMILES | IC50 [1] | IC50 [2, 5] | EC50 [3] | EC50 [4] | EC50 [3, 6] | IC50 ([1]; human CB1 receptor, SK-N-MC cell membranes, radioligand CP-55,940 0.2 nM, read-out: Cannabinoid CB1 Receptor Binding IC50) | IC50 ([2]; human CB2 receptor, read-out: Cannabinoid CB2 Receptor Binding IC50) |
| --- | --- | --- | --- | --- | --- | --- | --- |
| COc1ccc(-n2nc(C(=O)NC3C4(C)CCC(C4)C3(C)C)c3c2CCCC3)cc1 (centres unmarked) [compound 9] | 338 nM | 11.9 nM | 2750 nM | – | – | – | – |
| CC12CCC(C1)C(C)(C)C2NC(=O)Nc1nn(Cc2ccccc2)c2c1CCCC2 (centres unmarked) [compound 338] | 1350 nM | 27 nM | 6 nM | – | – | – | – |
| C[C@@H](NC(=O)c1nn(-c2ccc(Cl)cc2Cl)c2c1CCC/C2=C\c1ccc(F)cc1)c1ccccc1 [compound 296] | 5 nM | – | 13 nM | – | – | – | – |
| CCOC(=O)[C@H]1C2CCC(C2)[C@H]1NC(=O)c1nn(-c2ccc(F)cc2)c2c1CCCC2c1ccccc1 (some centres unmarked) [compound 147] | 2080 nM | 1790 nM | 152 nM | – | – | – | – |
| CC12CCC(C1)C(C)(C)C2NC(=O)c1nn(-c2ccc(F)cc2)c2c1CCCC2c1ccccc1 (centres unmarked) [compound 144] | 220 nM | 40 nM | 176 nM | – | – | – | – |
| CCOC(=O)C1CCc2c(c(C(=O)NC3C4CC5CC(C4)CC3C5)nn2Cc2ccccc2)C1 (centres unmarked) [compound 226] | 7.9 nM | 5.5 nM | 520 nM | 65 nM | – | – | – |
| C[C@H](NC(=O)c1nn(-c2ccc(Cl)cc2Cl)c2c1CCCC2=Cc1ccc(Cl)cc1)C1CCCCC1 [compound 321] | 230 nM | 600 nM | 133 nM | – | – | – | – |
| CCOC(=O)C1CCc2c(c(C(=O)NC3C4CC5CC(C4)CC3C5)nn2C2CCCCC2)C1 (centres unmarked) [compound 222] | 280 nM | 4.9 nM | 194 nM | 33 nM | – | – | – |
| C[C@H](NC(=O)c1nn(-c2ccc(Cl)cc2Cl)c2c1CCCC2=Cc1ccc(F)cc1)C1CCCCC1 [compound 309] | 47 nM | – | 81 nM | – | – | – | – |
| CCOC(=O)[C@@H]1CCc2c(c(C(=O)NC3C4(C)CCC(C4)C3(C)C)nn2-c2ccccc2)C1 (some centres unmarked) [compound 220] | – | 230 nM | 399 nM | 220 nM | – | – | – |
| CCOC(=O)C1CCc2c(c(C(=O)NC3C4(C)CCC(C4)C3(C)C)nn2C2CCCCC2)C1 (centres unmarked) [compound 67] | 300 nM | 15.5 nM | 524 nM | 23 nM | – | – | – |
| C[C@@H](NC(=O)c1nn(-c2ccc(Cl)cc2Cl)c2c1CCC/C2=C\c1ccc(F)cc1)C1CCCCC1 [compound 295] | 3 nM | – | < 30 nM | – | – | – | – |
| CCOC(=O)C1C2CCC(C2)C1NC(=O)c1nn(Cc2ccccc2)c2c1CCCC2 (centres unmarked) [compound 43] | 14 nM | 1 nM | 295 nM | – | – | – | – |
| CC(NC(=O)c1nn(-c2ccc(Cl)cc2Cl)c2c1CCC/C2=C\c1ccc(Cl)cc1)c1ccccn1 (centres unmarked) [compound 320] | 14 nM | – | 1 nM | – | – | – | – |
| C[C@H](NC(=O)/C=C/c1nn(Cc2ccccc2)c2c1CCCC2)c1ccccc1 [compound 305] | 9800 nM | 7200 nM | 630 nM | – | – | – | – |
| O=C(NC12CC3CC(CC(C3)C1)C2)c1nn(-c2ccc(F)cc2)c2c1CCCC2c1ccccc1 (centres unmarked) [compound 165] | – | 800 nM | 1030 nM | – | – | – | – |
| CCOC(=O)C1CCCc2c1c(C(=O)NC1C3(C)CCC(C3)C1(C)C)nn2C1CCCCC1 (centres unmarked) [compound 73] | 760 nM | 295 nM | 1740 nM | – | – | – | – |
| O=C(NN1CCCCC1)c1nn(-c2ccc(Cl)cc2Cl)c2c1CCCC2=Cc1ccc(F)cc1 [Cpd 297, 1-(2,4-dichloro-phenyl)-7-(4-fluoro-benzylidene)-4,5,6,7-tetrahydro-1H-indazole-3-carboxylic acid piperidin-1-ylamide] | 13 nM | – | 5 nM | – | – | – | – |
| CCOC(=O)[C@@H]1CCCC[C@@H]1NC(=O)c1nn(-c2ccc(F)cc2)c2c1CCCC2 [compound 33] | 58 nM | 8 nM | 135 nM | – | – | – | – |

| SMILES | IC50 [1] | IC50 [2, 5] | EC50 [3] | EC50 [4] | EC50 [3, 6] | IC50 ([1]; human CB1 receptor, SK-N-MC cell membranes, radioligand CP-55,940 0.2 nM, read-out: Cannabinoid CB1 Receptor Binding IC50) | IC50 ([2]; human CB2 receptor, read-out: Cannabinoid CB2 Receptor Binding IC50) |
| --- | --- | --- | --- | --- | --- | --- | --- |
| C[C@@H](NC(=O)c1nn(-c2ccc(Cl)cc2Cl)c2c1CCC/C2=C\c1ccc(Cl)cc1)C1CCCCC1 [compound 293] | 6 nM | 600 nM | 25 nM | – | – | – | – |
| O=C(NN1CCOCC1)c1nn(-c2ccc(Cl)cc2Cl)c2c1CCC/C2=C\c1ccc(Cl)cc1 [compound 291] | 180 nM | 1700 nM | 10 nM | – | – | – | – |
| COc1cccc(C2CCCc3c(C(=O)N[C@H](C)c4ccccc4)nn(-c4ccc(Cl)cc4Cl)c32)c1 (some centres unmarked) [compound 312] | – | – | 36 nM | – | – | – | – |
| CC(NC(=O)c1nn(-c2ccc(F)cc2)c2c1CCCC2c1ccccc1)C12CC3CC(CC(C3)C1)C2 (centres unmarked) [compound 146] | – | – | 1520 nM | – | – | – | – |
| CC(NS(=O)(=O)C=Cc1nn(-c2ccc(F)cc2)c2c1CCCC2CCc1ccccc1)c1ccccc1 (centres unmarked) [Cpd 258, 2-[1-(4-fluoro-phenyl)-7-phenethyl-4,5,6,7-tetrahydro-1H-indazol-3-yl]-ethenesulfonic acid (1-phenyl-ethyl)-amide] | – | – | 480 nM | – | – | – | – |
| COc1cccc(C2CCCc3c(C(=O)N[C@H](CCl)c4ccccc4)nn(-c4ccc(Cl)cc4Cl)c32)c1 (stereo partly drawn) [Cpd 316, 1-(2,4-dichloro-phenyl)-7-(3-methoxy-phenyl)-4,5,6,7-tetrahydro-1H-indazole-3-carboxylic acid [(1S)-2-chloro-1-phenyl-ethyl]-amide] | – | – | 46 nM | – | – | – | – |
| CC1(C)[C@@H]2CC[C@@](C)(C2)[C@H]1NC(=O)c1nn(-c2ccc(Cl)cc2Cl)c2c1CCC/C2=C\c1ccc(Cl)cc1 [compound 292] | 33 nM | 60 nM | 9 nM | – | – | – | – |
| C[C@H](NC(=O)c1nn(-c2ccc(Cl)cc2Cl)c2c1CCC/C2=C\c1ccc(Cl)cc1)c1ccccc1 [compound 294] | 110 nM | 700 nM | 140 nM | – | – | – | – |
| CCOC(=O)C1CCc2c(c(C(=O)NC(C)c3ccccc3)nn2Cc2ccccc2)C1 (centres unmarked) [compound 256] | 260 nM | 300 nM | 250 nM | – | – | – | – |
| O=C(NN1CCCCC1)c1nn(-c2ccc(Cl)cc2Cl)c2c1CCC/C2=C\c1ccc(Cl)cc1 [compound 290] | 25 nM | 1000 nM | 44 nM | – | – | – | – |
| CCOC(=O)C1CCc2nn(-c3ccccc3)c(C(=O)NC34CC5CC(CC(C5)C3)C4)c2C1 (centres unmarked) [compound 91] | – | – | 3370 nM | – | – | – | – |
| O=C(NN1CCOCC1)c1nn(-c2ccc(Cl)cc2Cl)c2c1CCC/C2=C\c1ccc(F)cc1 [compound 298] | 64 nM | – | 4 nM | – | – | – | – |
| CC12CCC(C1)C(C)(C)C2NC(=O)c1nn(-c2ccc(F)cc2)c2c1CCCC2CCc1ccccc1 (centres unmarked) [compound 151] | 590 nM | 30 nM | 801 nM | – | – | – | – |
| CCOC(=O)[C@@H]1CCCC[C@@H]1NC(=O)c1nn(Cc2ccccc2)c2c1CCCC2 (relative stereo) [compound 38] | 6 nM | 3.3 nM | 103 nM | – | – | – | – |
| CC(NS(=O)(=O)C=Cc1nn(-c2ccc(F)cc2)c2c1CCCC2CCc1ccccc1)C1CCCCC1 (centres unmarked) [Cpd 259, 2-[1-(4-fluoro-phenyl)-7-phenethyl-4,5,6,7-tetrahydro-1H-indazol-3-yl]-ethenesulfonic acid (1-cyclohexyl-ethyl)-amide] | – | – | – | – | 610 nM | – | – |
| CCNC(=O)[C@@H]1C2CCC(C2)[C@@H]1NC(=O)c1nn(Cc2ccccc2)c2c1CCCC2 (some centres unmarked) [compound 167] | 1660 nM | 28 nM | 3360 nM | – | – | – | – |
| COc1ccc(-n2nc(C(=O)NCCc3ccc(N)cc3)c3c2CCCC3)cc1 [compound 7] | – | – | – | – | 3880 nM | 3100 nM | 3570 nM |
| CC(NC(=O)c1nn(Cc2ccccc2)c2c1CCCC2c1ccccc1)c1ccccc1 (centres unmarked) [compound 253] | 25 nM | 300 nM | 1940 nM | – | – | – | – |
